Experimental data reported in US9458456B2, “Methods and compositions for the diagnosis, classification, and treatment of cancer” (UNIVERSITY OF SOUTH ALABAMA, priority 2011, dated 2016).

Assays:
Format in all cases: cell-based
Conditions in all cases: Homo sapiens
[1] = tested on: LNCaP-Myb Myb-overexpressing androgen-dependent prostate cancer cells; assay: Docetaxel cell viability, LNCaP-Myb cells
Procedure: (§1) Castration-resistant prostate cancer cells (C4-2), Myb-knockdown castration-resistant prostate cancer cells (C4-2 shMyb), androgen-dependent prostate cancer cells (LNCap-Neo), Myb-overexpressing androgen-dependent prostate cancer cells (LNCaP-Myb), were treated with increasing concentrations of Docetaxel and the viability tested at 48 hr and 72 hr post-treatment. […] Table 2 summarizes the IC50 values for docetaxel in the various cell lines.

[2] = tested on: C4-2 shMyb Myb-knockdown castration-resistant prostate cancer cells; assay: Docetaxel cell viability, C4-2shMyb cells
Procedure: as §1

[3] = tested on: LNCaP-Neo androgen-dependent prostate cancer cells; assay: Docetaxel cell viability, LNCaP-Neo cells
Procedure: as §1

[4] = tested on: C4-2 castration-resistant prostate cancer cells; assay: Docetaxel cell viability, C4-2 cells
Procedure: as §1

IC50 ([1]; 48 hours): 20.6 µM | IC50 ([1]; 72 hours): 14.8 µM | IC50 ([2]; 48 hours): 7 µM | IC50 ([2]; 72 hours): 4.8 µM | IC50 ([3]; 48 hours): 7.6 µM | IC50 ([3]; 72 hours): 4.9 µM | IC50 ([4]; C4-2, 48 hours): 18.2 µM | IC50 ([4]; C4-2, 72 hours): 13.1 µM
SMILES: CC(=O)O[C@@]12CO[C@@H]1C[C@H](O)[C@@]1(C)C(=O)[C@H](O)C3=C(C)[C@@H](OC(=O)[C@H](O)[C@@H](NC(=O)OC(C)(C)C)c4ccccc4)C[C@@](O)([C@@H](OC(=O)c4ccccc4)[C@H]21)C3(C)C [Docetaxel]
